Data on 25 molecules can be found in US9284321B2, “Piperazino[1,2-a]indol-1-ones and [1,4]diazepino[1,2-a]indol-1-one” (Hoffmann-La Roche Inc., priority 2012, dated 2016).

For orientation: melting point means the temperature, or range, at which the solid turns liquid.

Series [1] relates to human embryonic stem cell derived neural stem cells (NSCs). Put plainly: Neural Stem Cell Proliferation Assay (neurogenesis assay, ATP levels by CellTiterGlo). Type of series: cell-based. Particulars: 96 h, compound concentration at which 150% activity of control (100%) is reached, NSC proliferation by ATP level after 4 days incubation, dose response 8 μM to 8 nM. How it is done: Neurogenic properties of small molecules are determined based on the proliferation of human embryonic stem cell derived neural stem cells (NSCs) which were derived via a dual smad inhibition as previously described (Chambers, S. M., et al., Highly efficient neural conversion of human ES and iPS cells by dual inhibition of SMAD signaling, Nature biotechnology, 2009. 27(3): p. 275-80.)
Compounds respond is measured by the increase in cells based on ATP levels
(Promega:CellTiterGlo®) after an incubation period of 4 days.
NSCs are thawed and expanded over 3 passages. On the 14th day, NSCs are seeded in Polyornithin/Laminin coated 384 well plates at a cell density of 21′000 cells/cm^2 in a media volume of 38 μl.
4 hours after cell seeding, compound solutions are added at a volume of 2 μl. Stock solutions of the compounds (water, 5% DMSO) are diluted to obtain a dose response (11 points, dilution factor is 2), ranging from 8 μM to 8 nM. Controls are run to consistently determine the neurogenic properties of the cells:
Negative (neutral) control is cell culture Media (final DMSO concentration: 0.25%).
• 1. cell culture Media+100 ng/ml FGF2 (final DMSO concentration: 0.1%) • 2. cell culture Media+20 ng/ml EGF (final DMSO concentration: 0.1%) • 3. cell culture Media+100 ng/ml Wnt3a (final DMSO concentration: 0.1%)
After 4 days incubation at 37° C., 5% CO2, the amount of ATP per well is quantified. The ATP concentration is proportional to the cell number. ATP is quantified by using the Promega CellTiterGlo® kit. The CellTiterGlo® reagents contain a cell lysis buffer, a thermo stable luciferase (UltraGlo™ recombinant luciferase), magnesium and luciferin. Luciferin reacts with ATP producing oxyluciferin, AMP and light. The luminescence signal is proportional to the ATP content.
The value of negative (neutral) control is determined for each assay plate by taking the average of 16 negative control wells. The neurogenic compound response is calculated for each compound as (compound/Negative Control)*100.
The values of EC150 from the dose response curve are determined for each test compound. The EC150 is the compound concentration at which 150% activity of control (100%) is reached.
(In general: ATP-based viability assays read luminescence as a measure of living cells.)

In turn, `O=C1NCCCn2c1cc1cc(F)cc(-c3ccc(F)cc3)c12` [Example 17, 9-Fluoro-7-(4-fluoro-phenyl)-2,3,4,5-tetrahydro-[1,4]diazepino[1,2-a]indol-1-one] registered a melting point of 239.5 °C. Further, in series [1], the EC (150% of control) amounted to 0.05 µM.

`O=C1NCCn2c1cc1cc(F)cc(-c3ccc(F)cc3)c12` [Example 18, 8-Fluoro-6-(4-fluoro-phenyl)-3,4-dihydro-2H-pyrazino[1,2-a]indol-1-one] registered a melting point of 304 °C. Further, the EC (150% of control) in series [1] was 0.026 µM.

The molecule `COc1ccc(-c2cc(F)cc3cc4n(c23)CCNC4=O)cc1` [Example 19, 8-Fluoro-6-(4-methoxy-phenyl)-3,4-dihydro-2H-pyrazino[1,2-a]indol-1-one] returned a melting point of 274.5 °C. The EC (150% of control) in series [1] worked out at 0.007 µM.

Turning to `O=C1NCCCn2c1cc1cc(F)cc(-c3ccncc3)c12` [Example 20, 9-Fluoro-7-pyridin-4-yl-2,3,4,5-tetrahydro-[1,4]diazepino[1,2-a]indol-1-one], the melting point worked out at 309 °C. In series [1], this molecule displayed an EC (150% of control) of 0.037 µM.

The molecule `O=C1NCCn2c1cc1cc(F)cc(-c3ccncc3)c12` [Example 21, 8-Fluoro-6-pyridin-4-yl-3,4-dihydro-2H-pyrazino[1,2-a]indol-1-one] returned a melting point of 323.5 °C. The same molecule yielded an EC (150% of control) in series [1] of 0.036 µM.

The molecule `O=C1NCCn2c1cc1cc(F)cc(-c3ccc(F)c(F)c3)c12` [Example 22, 6-(3,4-Difluoro-phenyl)-8-fluoro-3,4-dihydro-2H-pyrazino[1,2-a]indol-1-one] gave a melting point of 289.5 °C. In series [1], the EC (150% of control) came to 0.037 µM.

With `O=C1NCCn2c1cc1cc(F)cc(-c3ccc(Cl)cc3)c12` [Example 23, 6-(4-Chloro-phenyl)-8-fluoro-3,4-dihydro-2H-pyrazino[1,2-a]indol-1-one], the melting point worked out at 322 °C. The EC (150% of control) in series [1] stood at 0.019 µM.

Regarding `Cc1ccc(-c2cc(F)cc3cc4n(c23)CCNC4=O)cc1` [Example 24, 8-Fluoro-6-p-tolyl-3,4-dihydro-2H-pyrazino[1,2-a]indol-1-one], the melting point is 271.5 °C. The molecule further displayed an EC (150% of control) in series [1] of 0.017 µM.

In turn, `O=C1NCCn2c1cc1cc(F)cc(-c3ccc(C(F)(F)F)cc3)c12` [Example 25, 8-Fluoro-6-(4-trifluoromethyl-phenyl)-3,4-dihydro-2H-pyrazino[1,2-a]indol-1-one] showed a melting point of 346 °C. Besides, in series [1], the EC (150% of control) is 0.023 µM.

`O=C1NCCCn2c1cc1cc(F)cc(-c3ccc(F)c(F)c3)c12` [Example 28, 7-(3,4-Difluoro-phenyl)-9-fluoro-2,3,4,5-tetrahydro-[1,4]diazepino[1,2-a]indol-1-one]: the melting point came out at 230.5 °C. Also, the EC (150% of control) in series [1] was 0.1 µM.

The molecule `O=C1NCCCn2c1cc1cc(F)cc(-c3ccc(Cl)cc3)c12` [Example 29, 7-(4-Chloro-phenyl)-9-fluoro-2,3,4,5-tetrahydro-[1,4]diazepino[1,2-a]indol-1-one] had a melting point of 263.5 °C. Also, the EC (150% of control) in series [1] came to 0.03 µM.

For `Cc1ccc(-c2cc(F)cc3cc4n(c23)CCCNC4=O)cc1` [Example 30, 9-Fluoro-7-p-tolyl-2,3,4,5-tetrahydro-[1,4]diazepino[1,2-a]indol-1-one], the melting point turned out to be 258.5 °C. This molecule also displayed an EC (150% of control) in series [1] of 0.036 µM.

With `O=C1NCCCn2c1cc1cc(F)cc(-c3ccc(C(F)(F)F)cc3)c12` [Example 31, 9-Fluoro-7-(4-trifluoromethyl-phenyl)-2,3,4,5-tetrahydro-[1,4]diazepino[1,2-a]indol-1-one], the melting point amounted to 257 °C. This molecule registered an EC (150% of control) in series [1] of 0.056 µM.

In the case of `O=C1NCCn2c1cc1c(F)c(F)cc(-c3ccc(F)cc3)c12` [Example 32, 8,9-Difluoro-6-(4-fluoro-phenyl)-3,4-dihydro-2H-pyrazino[1,2-a]indol-1-one], the melting point was 283.5 °C. In series [1], this molecule returned an EC (150% of control) of 2.6 µM.

Molecule `COc1ccc(-c2cc(F)c(F)c3cc4n(c23)CCNC4=O)cc1` [Example 33, 8,9-Difluoro-6-(4-methoxy-phenyl)-3,4-dihydro-2H-pyrazino[1,2-a]indol-1-one] registered a melting point of 227.5 °C. Further, in series [1], the EC (150% of control) came to 0.22 µM.

In turn, `O=C1NCCn2c1cc1c(F)c(F)cc(-c3ccc(Cl)cc3)c12` [Example 34, 6-(4-Chloro-phenyl)-8,9-difluoro-3,4-dihydro-2H-pyrazino[1,2-a]indol-1-one] registered a melting point of 327 °C. The EC (150% of control) in series [1] worked out at 1.4 µM.

For the molecule `O=C1NCCn2c1cc1c(F)c(F)cc(-c3ccc(F)c(F)c3)c12` [Example 35, 6-(3,4-Difluoro-phenyl)-8,9-difluoro-3,4-dihydro-2H-pyrazino[1,2-a]indol-1-one], the melting point is 317.5 °C. Moreover, in series [1], the EC (150% of control) stood at 2.6 µM.

As for `O=C1NCCCn2c1cc1c(F)c(F)cc(-c3ccc(F)cc3)c12` [Example 36, 9,10-Difluoro-7-(4-fluoro-phenyl)-2,3,4,5-tetrahydro-[1,4]diazepino[1,2-a]indol-1-one], the melting point is 287 °C. For the same molecule, in series [1], the EC (150% of control) was determined as 3.9 µM.

For `COc1ccc(-c2cc(F)c(F)c3cc4n(c23)CCCNC4=O)cc1` [Example 37, 9,10-Difluoro-7-(4-methoxy-phenyl)-2,3,4,5-tetrahydro-[1,4]diazepino[1,2-a]indol-1-one], the melting point is 207.5 °C. In series [1], this molecule yielded an EC (150% of control) of 0.45 µM.

`O=C1NCCn2c1cc1cc(F)c(F)c(-c3ccc(F)cc3)c12` [Example 38, 7,8-Difluoro-6-(4-fluoro-phenyl)-3,4-dihydro-2H-pyrazino[1,2-a]indol-1-one] displayed a melting point of 286.5 °C. In series [1], the EC (150% of control) is 0.03 µM.

Molecule `COc1ccc(-c2c(F)c(F)cc3cc4n(c23)CCNC4=O)cc1` [Example 39, 7,8-Difluoro-6-(4-methoxy-phenyl)-3,4-dihydro-2H-pyrazino[1,2-a]indol-1-one] displayed a melting point of 274.5 °C. The molecule also showed an EC (150% of control) in series [1] of 0.005 µM.

Molecule `O=C1NCCCn2c1cc1cc(F)c(F)c(-c3ccc(F)cc3)c12` [Example 40, 8,9-Difluoro-7-(4-fluoro-phenyl)-2,3,4,5-tetrahydro-[1,4]diazepino[1,2-a]indol-1-one] returned a melting point of 223.5 °C. Further, in series [1], the EC (150% of control) was 0.024 µM.

Take `COc1ccc(-c2c(F)c(F)cc3cc4n(c23)CCCNC4=O)cc1` [Example 41, 8,9-Difluoro-7-(4-methoxy-phenyl)-2,3,4,5-tetrahydro-[1,4]diazepino[1,2-a]indol-1-one]: the melting point was 182.5 °C. In series [1], this molecule came in with an EC (150% of control) of 0.006 µM.

With `O=C1NCCCn2c1cc1cc(F)c(F)c(-c3ccc(F)c(F)c3)c12` [Example 42, 7-(3,4-Difluoro-phenyl)-8,9-difluoro-2,3,4,5-tetrahydro-[1,4]diazepino[1,2-a]indol-1-one], the melting point is 225 °C. The molecule also had an EC (150% of control) in series [1] of 0.21 µM.

On to `O=C1NCCCn2c1cc1cc(F)c(F)c(-c3ccc(Cl)cc3)c12` [Example 43, 7-(4-Chloro-phenyl)-8,9-difluoro-2,3,4,5-tetrahydro-[1,4]diazepino[1,2-a]indol-1-one], for which the melting point was 232.5 °C. This molecule also registered an EC (150% of control) in series [1] of 0.08 µM.
